In patent US11655254B2, “Substituted piperazines as BTK inhibitors” (HUTCHISON MEDIPHARMA LIMITED, priority 2020, dated 2023) one finds IC50 data, which are given here for 1 compound.

Assay [1] concerns the target Phosphorylated BTK in Ramos cells (Homo sapiens (Human), UniProt Q06187). In words: Determination of phosphorylated BTK in Ramos cells (BTK phospho-Y223 HTRF). The settings on record: Ramos cells stimulated with immunoglobulin M 10 μg/mL and hydrogen peroxide 3.3 mM, 10 minutes. It is filed as cell-based. The procedure:
Ramos cells were starved in PRMI 1640 medium with 1% FBS for 2 hours. The starved Ramos cells were diluted with Hank's balanced salt solution to 5.0×10^6 cells/ml, seeded in a 96-well plate with 20 μL/well (1.0×10^5 cells/well), and cultured in a 5% CO2, 37° C. cell incubator. […]
The 384 well plate incubated overnight in the constant temperature incubator was taken out to detect the luminescence signal using the Envision microwell plate reader at the […]. The reading value at 665 nm/615 nm of each well multiplied by 10^4 was used as the signal value of each well.
The average signal value of the wells supplemented with the mixed solution of human immunoglobulin M (final concentration was 10 μg/mL) and hydrogen peroxide (final concentration was 3.3 mM) without the test compound was regarded as the high value, and the average signal value of the wells without immunoglobulin M stimulation and without the test compound was regarded as the low value. According to the signal value in each well, the inhibition ratio (%) of each concentration of compounds was calculated, and the 205 model in XL-Fit 5.3 software (ID Business Solutions Limited) was used to obtain an IC50 value.
The inhibition ratio is calculated as follows: inhibition ratio (%)=100%−{(treating well for the test compound−negative control treating well)/(control treating well for anti-human immunoglobulin M−negative control treating well)}×100%, wherein, […]

Assay [2] concerns B cell activation in rat whole blood. Description: Determination of B cell activity in whole blood of rats (anti-rat IgD induced). Type of assay: cell-based. The settings on record: anti-rat immunoglobulin D, 18 hours, flow cytometry B220/CD86, read-out: IC50 value, inhibiting B cell activation in rat whole blood. The procedure:
In the determination of the compound activity, the collected peripheral whole blood of rat was added to a 96 well plate at 80 μL/well and cultured in a 5% CO2, 37° C. cell incubator. […]
On the second day, the 96-well plates were taken out and the flow cytometry antibody mixture (the final concentration of anti-rat B220PE antibody was 1 μg/mL and the final concentration of anti-rat CD86 FITC antibody was 1 μg/mL) diluted with PBS was added to each well of plate, which were incubated for 30 minutes in the dark, and then 50 […] of blood from each well was pipetted to the freshly prepared 500 μL of lysis buffer to lyse red blood cells. The plates were shaken for 20 minutes, centrifuged to remove the supernatant, then washed, fixed, and detected on a flow cytometer.
The B cell activation in the sample was determined by flow dyeing method. […]
The inhibition ratio is calculated as follows: inhibition ratio (%)=100%−{(treating well for the test compound−negative control treating well)/(control treating well for anti-rat immunoglobulin D−negative control treating well)}×100%, wherein, […]
(In general: In flow cytometry, cells or beads pass a laser one at a time.)

Phosphorylated BTK in Ramos cells, sequence (Q06187 whole entry): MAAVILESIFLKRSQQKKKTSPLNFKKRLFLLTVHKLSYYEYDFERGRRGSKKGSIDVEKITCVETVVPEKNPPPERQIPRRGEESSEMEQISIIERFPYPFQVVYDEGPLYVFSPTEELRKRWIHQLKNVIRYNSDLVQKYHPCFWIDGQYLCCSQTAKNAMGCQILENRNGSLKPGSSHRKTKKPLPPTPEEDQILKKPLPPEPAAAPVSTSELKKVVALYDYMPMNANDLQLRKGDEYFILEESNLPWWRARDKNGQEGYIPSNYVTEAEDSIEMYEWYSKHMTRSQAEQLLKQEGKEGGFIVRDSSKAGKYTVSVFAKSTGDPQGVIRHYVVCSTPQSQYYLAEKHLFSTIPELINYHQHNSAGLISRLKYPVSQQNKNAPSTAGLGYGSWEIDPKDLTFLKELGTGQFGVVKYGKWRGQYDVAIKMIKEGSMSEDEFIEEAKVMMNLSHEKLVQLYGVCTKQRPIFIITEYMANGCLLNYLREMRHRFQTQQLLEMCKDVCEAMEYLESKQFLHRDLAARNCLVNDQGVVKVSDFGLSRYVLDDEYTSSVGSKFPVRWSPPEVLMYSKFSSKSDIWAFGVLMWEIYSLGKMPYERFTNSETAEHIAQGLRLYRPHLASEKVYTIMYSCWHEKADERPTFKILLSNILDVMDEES

Usually IC50 stands for the concentration that inhibits the measured activity by half. Turning to `C[C@H]1CN(C2COC2)C[C@H](C)N1c1ccc(Nc2cc(-c3ccnc(-n4ccn5c6c(cc5c4=O)CC(C)(C)C6)c3CO)cn(C)c2=O)nc1` [Compound 1, 2-(5-((5-((2S,6S)-2,6-dimethyl-4-(oxetan-3-yl)piperazin-1-yl)pyridin-2-yl)amino)-3′-(hydroxymethyl)-1-methyl-6-oxo-1,6-dihydro-[3,4′-bipyridin]-2′-yl)-7,7-dimethyl-7,8-dihydro-2H-cyclopenta[4,5]pyrrolo[1,2-a]pyrazin-1(6H)-one], the IC50 in assay [1] amounted to 5 nM; in assay [2], 1 nM.
